Source: patent US20210283261A1, “Compositions and Methods for Treating ALK-Mediated Cancer” (ICAHN SCHOOL OF MEDICINE AT MOUNT SINAI, priority 2017, published 2021)

Tests used:
Format in all cases: cell-based
NPM-ALK fusion protein = biological target: T1, NPM-ALK fusion protein (Homo sapiens, UniProt Q9UM73); assay: Western blot of NPM-ALK fusion protein levels in SU-DHL-1 cells; conditions: for effect on NPM-ALK fusion protein levels, concentration dependence: SU-DHL-1 cells, 1, 3, 10, 30 or 100 nM
T1 construct: endogenous in cells; host or cells: SU-DHL-1; the other entry of the earlier key: NPM1 (P06748, Nucleophosmin)
T1 sequence (Q9UM73 with tags, fused parts or gaps): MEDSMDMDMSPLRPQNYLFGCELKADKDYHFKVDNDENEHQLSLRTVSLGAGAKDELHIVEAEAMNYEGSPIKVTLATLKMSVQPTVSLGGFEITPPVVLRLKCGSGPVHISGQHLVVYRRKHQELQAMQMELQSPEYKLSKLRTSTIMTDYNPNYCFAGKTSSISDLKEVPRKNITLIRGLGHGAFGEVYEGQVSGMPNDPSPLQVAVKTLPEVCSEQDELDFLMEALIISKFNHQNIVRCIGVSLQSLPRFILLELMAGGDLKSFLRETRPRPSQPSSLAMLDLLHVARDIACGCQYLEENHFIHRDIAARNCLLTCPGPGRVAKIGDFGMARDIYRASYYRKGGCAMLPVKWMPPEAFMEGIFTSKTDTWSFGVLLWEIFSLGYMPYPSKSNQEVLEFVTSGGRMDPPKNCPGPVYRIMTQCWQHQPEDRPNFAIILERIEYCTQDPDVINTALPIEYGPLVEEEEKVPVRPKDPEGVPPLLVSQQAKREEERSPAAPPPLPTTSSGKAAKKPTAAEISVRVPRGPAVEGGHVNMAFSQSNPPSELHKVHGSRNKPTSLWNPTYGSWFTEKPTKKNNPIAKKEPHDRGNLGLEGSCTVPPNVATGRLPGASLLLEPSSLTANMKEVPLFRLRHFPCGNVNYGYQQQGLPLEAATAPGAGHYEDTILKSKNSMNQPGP
Description: (§1) Cells were cultured in a 37° C. incubator with 5% CO2.
(§2) Cells were washed with cold PBS once and lysed in 1× Laemmli loading buffer directly. […] Membrane was blocked in 5% milk in Tris-buffered saline and Tween 20 (TBST) for 1 h at room temperature, followed by incubation with a primary antibody overnight at 4° C., and a horseradish peroxidase (HRP)-conjugated secondary antibody for 1 h at room temperature. The membrane was imaged by a ChemiDoc MP imaging system (BIO-RAD). Antibodies against GAPDH (abeam), Phospho-ALK (Tyr1507), ALK (Cell Signaling Technology), Tubulin (Santa Cruz) were purchased commercially.
SU-DHL-1 suspension cells were seeded in 12-well plates at a density of 6×10^5/mL and treated with DMSO or indicated compounds at 30 nM or 100 nM for indicated time.
SU-DHL-1 cells were seeded in 12-well plates at a density of 4×10^5/mL and treated with DMSO or indicated serial dilutions of compounds for 16 h. The NPM-ALK fusion protein levels were determined by Western blot and normalized against GPADH (right panel).

ALK fusion protein = biological target: T2, ALK fusion protein (Homo sapiens, UniProt Q9UM73); assay: Western blot of ALK fusion protein levels in NCI-H3122 cells; conditions: for Dmax at 0.5 µM: NCI-H3122, NCI-H3122 cells, read-out: ALK fusion protein degradation, NCI-H3122 (500 nM); for Dmax at 0.5 µM / ALK fusion protein degradation, NCI-H3122 (500 nM): 500 nM, Western blot; for ALK fusion protein degradation, NCI-H3122 (500 nM) / significantly reduced ALK fusion protein levels (degraders vs negative controls): NCI-H3122 cells
T2 construct: endogenous in cells; host or cells: NCI-H3122; the other entry of the earlier key: EML4 (Q9HC35, Echinoderm microtubule-associated protein-like 4)
T2 sequence (Q9UM73 with tags, fused parts or gaps): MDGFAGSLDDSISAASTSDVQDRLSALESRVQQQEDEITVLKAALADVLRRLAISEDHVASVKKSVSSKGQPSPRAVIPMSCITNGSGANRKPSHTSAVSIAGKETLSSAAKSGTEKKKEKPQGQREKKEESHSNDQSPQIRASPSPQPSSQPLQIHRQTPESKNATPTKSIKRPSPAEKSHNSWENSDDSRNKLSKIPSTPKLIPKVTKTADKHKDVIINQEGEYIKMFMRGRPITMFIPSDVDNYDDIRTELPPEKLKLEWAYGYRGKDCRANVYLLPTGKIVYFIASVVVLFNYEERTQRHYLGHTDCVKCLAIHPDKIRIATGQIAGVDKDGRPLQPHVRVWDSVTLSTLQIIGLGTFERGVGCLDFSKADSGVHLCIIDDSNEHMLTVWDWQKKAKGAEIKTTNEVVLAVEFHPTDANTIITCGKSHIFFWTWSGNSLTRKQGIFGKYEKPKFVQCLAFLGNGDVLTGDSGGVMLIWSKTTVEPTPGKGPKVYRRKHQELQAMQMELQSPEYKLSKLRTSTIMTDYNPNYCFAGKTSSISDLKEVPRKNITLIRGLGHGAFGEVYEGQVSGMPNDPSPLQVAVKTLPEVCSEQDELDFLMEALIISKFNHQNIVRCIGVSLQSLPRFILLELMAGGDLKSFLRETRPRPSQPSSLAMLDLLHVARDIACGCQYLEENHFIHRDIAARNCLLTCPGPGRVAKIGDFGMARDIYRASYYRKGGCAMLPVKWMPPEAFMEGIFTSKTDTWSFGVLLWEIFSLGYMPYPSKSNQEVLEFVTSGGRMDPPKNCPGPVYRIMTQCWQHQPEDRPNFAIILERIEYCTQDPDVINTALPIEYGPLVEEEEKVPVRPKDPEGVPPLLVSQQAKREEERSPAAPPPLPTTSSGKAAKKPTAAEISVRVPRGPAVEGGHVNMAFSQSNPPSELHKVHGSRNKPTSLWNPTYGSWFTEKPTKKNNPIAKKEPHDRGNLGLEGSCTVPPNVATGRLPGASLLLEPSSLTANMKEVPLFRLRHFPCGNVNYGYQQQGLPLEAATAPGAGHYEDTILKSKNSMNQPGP
Description: (§3) SU-DHL-1, NCI-H3122 and NCI-H2228 cells were cultured in RPMI-1640 medium supplemented with 10% fetal bovine serum, 50 μg/mL penicillin and streptomycin. Cells were cultured in a 37° C. incubator with 5% CO2.
Cells were washed with cold PBS once and lysed in 1× Laemmli loading buffer directly. Lysates were heated at 99° C. for […], and resolved on 4-15% precast SDS-PAGE (BIO-RAD) and transferred onto PVDF membrane. Membrane was blocked in 5% milk in Tris-buffered saline and Tween 20 (TBST) for 1 h at room temperature, followed by incubation with a primary antibody overnight at 4° C., and a horseradish peroxidase (HRP)-conjugated secondary antibody for 1 h at room temperature. The membrane was imaged by a ChemiDoc MP imaging system (BIO-RAD). Antibodies against GAPDH (abeam), Phospho-ALK (Tyr1507), ALK (Cell Signaling Technology), Tubulin (Santa Cruz) were purchased commercially. […]

[1] = biological target: T3, EML4-ALK v3 fusion protein (Homo sapiens, UniProt Q9UM73); assay: Western blot of EML4-ALK v3 fusion protein levels in NCI-H2228 cells; conditions: 16 h; for effect on EML4-ALK fusion protein levels, concentration dependence: NCI-H2228 cells, 1, 3, 10, 30 or 100 nM
T3 construct: endogenous in cells; host or cells: NCI-H2228
T3 sequence (Q9UM73 1058-1620 limits assumed): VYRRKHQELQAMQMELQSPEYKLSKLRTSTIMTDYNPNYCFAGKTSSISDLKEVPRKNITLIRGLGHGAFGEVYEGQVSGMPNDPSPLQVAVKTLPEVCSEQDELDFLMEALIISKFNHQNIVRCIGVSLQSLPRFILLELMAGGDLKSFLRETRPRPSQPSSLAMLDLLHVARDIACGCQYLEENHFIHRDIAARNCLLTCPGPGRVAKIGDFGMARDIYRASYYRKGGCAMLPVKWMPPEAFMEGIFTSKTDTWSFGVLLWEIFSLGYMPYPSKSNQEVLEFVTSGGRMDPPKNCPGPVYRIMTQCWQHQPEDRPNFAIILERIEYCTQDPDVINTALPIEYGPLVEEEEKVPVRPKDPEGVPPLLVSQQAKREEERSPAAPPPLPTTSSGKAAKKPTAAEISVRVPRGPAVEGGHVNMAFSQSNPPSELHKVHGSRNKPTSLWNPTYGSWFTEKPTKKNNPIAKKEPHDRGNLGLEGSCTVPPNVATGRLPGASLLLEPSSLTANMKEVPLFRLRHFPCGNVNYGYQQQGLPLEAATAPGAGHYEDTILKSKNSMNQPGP
Description: as §1, §2
Cells were 70% confluent and treated with DMSO or indicated serial dilutions of compounds for 16 h. The EML4-ALK fusion protein levels were determined by Western blot and normalized against GPADH (right panel).

SU-DHL-1 cells = assay: Cell viability assay in SU-DHL-1 cells
Description: (§4) SU-DHL-1 cells were seeded in 96-well plates at a density of 1×10^4 cells per well, in triplicate. Treated cells with DMSO or indicated serial dilutions of compounds for 2.5 days. Cell growth/survival was measured by using the CellTiter-Glo luminescent cell viability assay following the manufacturer's instructions (Promega) or CCK8 cell viability assay (Sigma). Data was analyzed by using the GraphPad Prism software, Error bars represent ±SD for triplicate experiments.
as §4, with “assay.” for “assay following the manufacturer's instructions (Promega) or CCK8 cell viability assay (Sigma).”, “experiments (left panel).” for “experiments.”
SU-DHL-1 cells were seeded in 96-well plates at a density of 5000 cells per well, in triplicate. The cells were treated with DMSO or indicated serial dilutions of compounds for 3 days. Cell growth was measured using the CellTiter-Glo luminescent cell viability assay. Data were analyzed using the GraphPad Prism.
(§5) SU-DHL-1 and NCI-3122 cells were treated with DMSO or indicated serial dilutions of compounds for 3 days. Data were analyzed using the GraphPad Prism.

NCI-H3122 cells = assay: Cell viability assay in NCI-H3122 cells; conditions: 3 days
Description: as §3, §5

ALK = assay: Characterization of ALK degraders in ALCL and NSCLC cells (summary); conditions: summary statement
Excerpt: Specific exemplary ALK degraders/disruptors were characterized in various different anaplastic large cell lymphoma (ALCL) cells and non-small cell lung cancer (NSCLC) cells (Examples 4-19, FIGS. 1-18). […] This efficacy in suppressing ALK expression and ALK activity correlated with efficacy in inhibiting cancer cell proliferation.

Structure (SMILES)	effect on NPM-ALK fusion protein levels, concentration dependence (NPM-ALK fusion protein; 16 h)	Dmax at 0.5 µM (ALK fusion protein) [%]	effect on EML4-ALK fusion protein levels, concentration dependence [1]	significantly reduced ALK fusion protein levels (degraders vs negative controls) (NPM-ALK fusion protein; SU-DHL-1 cells, 16 h)	significantly reduced ALK fusion protein levels (degraders vs negative controls) (ALK fusion protein; 16 h)	other results
Cc1cc(Nc2ncc(Cl)c(Nc3ccccc3S(=O)(=O)C(C)C)n2)c(OC(C)C)cc1C1CCN(CC(=O)NCCOCCOCCOCCOCCOCCNc2cccc3c2C(=O)N(C2CCC(=O)N(C)C2=O)C3=O)CC1 (stereo not drawn) [CZ47-48, 2-(4-(4-((5-Chloro-4-((2-(isopropylsulfonyl)phenyl)amino)pyrimidin-2-yl)amino)-5-isopropoxy-2-methylphenyl)piperidin-1-yl)-N-(17-((2-(l-methyl-2,6-dioxopiperidin-3-yl)-1,3-dioxoisoindolin-4-yl)amino)-3,6,9,12,15-pentaoxaheptadecyl)acetamide]	no significant effect	< 20	no significant effect			
Cc1cc(Nc2ncc(Cl)c(Nc3ccccc3S(=O)(=O)C(C)C)n2)c(OC(C)C)cc1C1CCNCC1 [ceritinib, reference compound]	no significant effect		no significant effect			effect on NPM-ALK fusion protein levels (NPM-ALK fusion protein; SU-DHL-1 cells, 30 nM or 100 nM): no effect; effect on ALK protein levels ([1]; NCI-H2228 cells, 100 nM): no distinct effect
Cc1cc(Nc2ncc(Cl)c(Nc3ccccc3S(=O)(=O)C(C)C)n2)c(OC(C)C)cc1C1CCN(CC(=O)NCCOCCOCCOCCOCCNc2cccc3c2C(=O)N(C2CCC(=O)NC2=O)C3=O)CC1 (stereo not shown) [CZ40-53, 2-(4-(4-((5-Chloro-4-((2-(isopropylsulfonyl)phenyl)amino)pyrimidin-2-yl)amino)-5-isopropoxy-2-methylphenyl)piperidin-1-yl)-N-(14-((2-(2,6-dioxopiperidin-3-yl)-1,3-dioxoisoindolin-4-yl)amino)-3,6,9,12-tetraoxatetradecyl)acetamide]						Dmax at 0.03 µM (NPM-ALK fusion protein; SU-DHL-1 cells, 30 nM, Western blot, read-out: ALK fusion protein degradation, SU-DHL-1 (30 nM)): > 80%; GI50 (SU-DHL-1 cells; Homo sapiens, 60 h, 2.5 days, CellTiter-Glo, read-out: GI50 (drug concentration that results in 50% growth inhibition)): < 0.04 µM; suppressing both ALK expression and ALK activity (ALK): especially effective

Second part, led by results:

effect on NPM-ALK fusion protein levels, concentration dependence (NPM-ALK fusion protein; 16 h)	Dmax at 0.5 µM (ALK fusion protein) [%]	effect on EML4-ALK fusion protein levels, concentration dependence [1]	significantly reduced ALK fusion protein levels (degraders vs negative controls) (NPM-ALK fusion protein; SU-DHL-1 cells, 16 h)	significantly reduced ALK fusion protein levels (degraders vs negative controls) (ALK fusion protein; 16 h)	Structure (SMILES)	other results
no significant effect	< 20	no significant effect			Cc1cc(Nc2ncc(Cl)c(Nc3ccccc3S(=O)(=O)C(C)C)n2)c(OC(C)C)cc1C1CCN(CC(=O)NCCNc2cccc3c2C(=O)N(C2CCC(=O)N(C)C2=O)C3=O)CC1 (stereo not drawn) [CZ47-40, 2-(4-(4-((5-Chloro-4-((2-(isopropylsulfonyl)phenyl)amino)pyrimidin-2-yl)amino)-5-isopropoxy-2-methylphenyl)piperidin-1-yl)-N-(2-((2-(l-methyl-2,6-dioxopiperidin-3-yl)-1,3-dioxoisoindolin-4-yl)amino)ethyl)acetamide]	
			significantly reduced	significantly reduced	Cc1cc(Nc2ncc(Cl)c(Nc3ccccc3S(=O)(=O)C(C)C)n2)c(OC(C)C)cc1C1CCN(C(=O)COCCOCC(=O)N[C@H](C(=O)N2C[C@H](O)C[C@H]2C(=O)NCc2ccc(-c3scnc3C)cc2)C(C)(C)C)CC1 [CZ47-15, (2S,4R)-1-((S)-2-(2-(2-(2-(4-(4-((5-Chloro-4-((2-(isopropylsulfonyl)phenyl)amino)pyrimidin-2-yl)amino)-5-isopropoxy-2-methylphenyl)piperidin-1-yl)-2-oxoethoxy)ethoxy)acetamido)-3,3-dimethylbutanoyl)-4-hydroxy-N-(4-(4-methylthiazol-5-yl)benzyl)pyrrolidine-2-carboxamide]	effect on ALK fusion protein levels, concentration dependence (NPM-ALK fusion protein; SU-DHL-1 cells, 0, 10, 20, 40, 80 and 160 nM, 16 h): concentration-dependently reduced; rescue of induced ALK fusion protein degradation by MG-132 and MLN4924 (NPM-ALK fusion protein; SU-DHL-1 cells, 2 h pre-treatment, then 100 nM compound for 6 h): significantly rescued; effect on ALK fusion protein levels, concentration dependence (ALK fusion protein; NCI-H3122 cells, 0, 50, 100, 200, 400 and 800 nM, 16 h): concentration-dependently reduced; ALK fusion protein degradation, NCI-H3122 (500 nM) (ALK fusion protein): ++ (Protein degradation >80%); inhibition of cell viability (SU-DHL-1 cells; 3 days): significantly inhibited; inhibition of cell viability (NCI-H3122 cells): significantly inhibited; suppressing both ALK expression and ALK activity (ALK): especially effective
	< 20		not	not	Cc1cc(Nc2ncc(Cl)c(Nc3ccccc3S(=O)(=O)C(C)C)n2)c(OC(C)C)cc1C1CCN(C(=O)CCCC(=O)N[C@H](C(=O)N2C[C@@H](O)C[C@H]2C(=O)NCc2ccc(-c3scnc3C)cc2)C(C)(C)C)CC1 [HC58-111, (2S,4S)-1-((S)-2-(5-(4-(4-((5-Chloro-4-((2-(isopropylsulfonyl)phenyl)amino)pyrimidin-2-yl)amino)-5-isopropoxy-2-methylphenyl)piperidin-1-yl)-5-oxopentanamido)-3,3-dimethylbutanoyl)-4-hydroxy-N-(4-(4-methylthiazol-5-yl)benzyl)pyrrolidine-2-carboxamide]	
			not	not	Cc1cc(Nc2ncc(Cl)c(Nc3ccccc3S(=O)(=O)C(C)C)n2)c(OC(C)C)cc1C1CCN(C(=O)COCCOCC(=O)N[C@H](C(=O)N2CC(O)C[C@H]2C(=O)NCc2ccc(-c3scnc3C)cc2)C(C)(C)C)CC1 (stereo in doubt) [HC58-110, (2S,4S)-1-((S)-2-(2-(2-(2-(4-(4-((5-Chloro-4-((2-(isopropylsulfonyl)phenyl)amino)pyrimidin-2-yl)amino)-5-isopropoxy-2-methylphenyl)piperidin-1-yl)-2-oxoethoxy)ethoxy)acetamido)-3,3-dimethylbutanoyl)-4-hydroxy-N-(4-(4-methylthiazol-5-yl)benzyl)pyrrolidine-2-carboxamide]	ALK fusion protein degradation, NCI-H3122 (500 nM) (ALK fusion protein): − (Protein degradation <20%)
	< 20		not	not	Cc1cc(Nc2ncc(Cl)c(Nc3ccccc3S(=O)(=O)C(C)C)n2)c(OC(C)C)cc1C1CCN(C(=O)CCCCC(=O)N[C@H](C(=O)N2C[C@@H](O)C[C@H]2C(=O)NCc2ccc(-c3scnc3C)cc2)C(C)(C)C)CC1 [HC58-112, (2S,4S)-1-((S)-2-(6-(4-(4-((5-chloro-4-((2-(isopropylsulfonyl)phenyl)amino)pyrimidin-2-yl)amino)-5-isopropoxy-2-methylphenyl)piperidin-1-yl)-6-oxohexanamido)-3,3-dimethylbutanoyl)-4-hydroxy-N-(4-(4-methylthiazol-5-yl)benzyl)pyrrolidine-2-carboxamide]	
